Source: the NIST ThermoML archive (doi:10.1007/s10765-010-0861-2)

Assays:
[1] = 101.33 kPa, Liquid; for mass density: Pycnometric method
[2] = xn = mol fraction of the nth substance listed; details: 308.15 K, 101 kPa, Liquid, Frequency=2 MHz

c1ccccc1 [benzene]
[1], 298.15 K
Details	mass density [kg/m3]	speed of sound [m/s]
–	873.62	1298

Cc1ccccc1 [toluene] + CCCO
[2]
Details	speed of sound [m/s]
x1 = 0.0724	1193
x1 = 0.1494	1199
x1 = 0.2314	1204
x1 = 0.319	1209
x1 = 0.3586	1211
x1 = 0.4352	1216
x1 = 0.5131	1220
x1 = 0.5724	1224
x1 = 0.6211	1227
x1 = 0.6846	1231
x1 = 0.7376	1235
x1 = 0.7829	1239
x1 = 0.8635	1247
x1 = 0.9243	1253

Cc1ccccc1 [toluene]
[1], 298.15 K
Details	mass density [kg/m3]	speed of sound [m/s]
–	862.23	1305

CCCO [propan-1-ol]
[1], 298.15 K
Details	mass density [kg/m3]	speed of sound [m/s]
–	799.28	1188

c1ccccc1 [benzene] + CCCO
[2]
Details	speed of sound [m/s]
x1 = 0.0852	1192
x1 = 0.1733	1196
x1 = 0.2644	1200
x1 = 0.3059	1201
x1 = 0.3586	1203
x1 = 0.3995	1204
x1 = 0.4561	1206
x1 = 0.5274	1208
x1 = 0.582	1210
x1 = 0.6618	1213
x1 = 0.7267	1216
x1 = 0.7703	1219
x1 = 0.883	1233
x1 = 0.9335	1242

O=C1CCCN1 [2-pyrrolidinone]
[1]
Details	mass density [kg/m3]	speed of sound [m/s]
298.15 K	1107.26	–
308.15 K	–	1603
